SMILES strings stand for the structures. Active and inactive are the calls of the source.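 How the source made its calls: active means compounds with an IC50 below 50 µM against the phosphatase; inactive means IC50 at 50 µM or above.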

For eight compounds, IC50 results are on record in PubChem BioAssay AID624439 (The Scripps Research Institute Molecular Screening Center, 2012).

The target of this test is Serine/threonine-protein phosphatase 5 (Homo sapiens) (UniProt P53041). Briefly: PP5c inhibitor potency on phosphohistone, late-stage follow-up, orthogonal assay, biochemical, radiolabeled phosphohistone, dose response, round 5 (AID 624439). The settings on record: purified PP5c, 33P-phosphohistone dephosphorylation, scintillation.
Sequence of Serine/threonine-protein phosphatase 5 (Homo sapiens) (P53041 whole entry, looked up): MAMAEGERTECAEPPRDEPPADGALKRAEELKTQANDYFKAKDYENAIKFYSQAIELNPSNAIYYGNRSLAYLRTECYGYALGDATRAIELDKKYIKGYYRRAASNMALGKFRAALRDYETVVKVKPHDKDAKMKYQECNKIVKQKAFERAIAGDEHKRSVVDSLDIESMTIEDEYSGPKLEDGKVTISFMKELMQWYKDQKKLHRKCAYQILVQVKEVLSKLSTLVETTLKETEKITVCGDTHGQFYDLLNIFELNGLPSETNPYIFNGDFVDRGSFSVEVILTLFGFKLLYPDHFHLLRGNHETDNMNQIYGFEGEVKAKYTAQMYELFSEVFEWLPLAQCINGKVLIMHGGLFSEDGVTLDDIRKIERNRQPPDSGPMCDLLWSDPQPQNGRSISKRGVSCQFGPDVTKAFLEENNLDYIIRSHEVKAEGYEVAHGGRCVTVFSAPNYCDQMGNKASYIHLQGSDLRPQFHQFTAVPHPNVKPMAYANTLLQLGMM
`COc1cccc(-c2n[nH]nc2C(=O)O)c1`: the half-inhibitory concentration (IC50) was 49 µM.

With `O=C(O)c1n[nH]nc1-c1ccccc1F`, the IC50 was 42.2 µM.

On to `O=C(O)c1n[nH]nc1-c1cccc(F)c1`, for which the IC50 entry was “inactive”.

Turning to `O=C(O)c1n[nH]nc1-c1ccc(F)cc1`, the IC50 result is “inactive”.

`COc1ccccc1-c1n[nH]nc1C(=O)O`: the half-maximal inhibitory concentration (IC50) was 29.7 µM.

As for `COc1ccc(-c2n[nH]nc2C(=O)O)cc1`, the IC50 result is “inactive”.

As for `O=C(O)c1n[nH]nc1-c1ccccc1O`, the IC50 was 31.4 µM.

Regarding `CC(C)Oc1ccccc1-c1n[nH]nc1C(=O)O`, the half-inhibitory concentration (IC50) was 17.1 µM.

What is called IC50 is the point on the concentration scale where inhibition reaches its midpoint.
